Experimental data reported in publication PMC8121805, “Discovery of first-in-class inhibitors of ASH1L histone methyltransferase with anti-leukemic activity” (Nature Communications, 2021).
Values joined by “and” are separate entries in the source; they are usually repeats but may differ in a detail not shown here. Equal entries are not always repeated.

Legend:
[1] = biological target: ASH1L (amino acids 2046–2330) (Homo sapiens, UniProt Q9NR48); assay: Histone methyltransferase (HMT) assay; conditions: for IC50: IC50, HMT assay with nucleosomes as substrate, mean ± s.d. from two independent experiments
Experimental: The mixtures of ASH1L and compounds were incubated at room temperature for 1 h. […] The reaction was continued for 1 h at room temperature, then quenched by addition of 10% Trichloroacetic acid (TCA) and then transferred to 96-well filter plates (Millipore sigma, MSFBN6B), washed twice with 10% TCA and then once with 200-proof ethanol. After extensive drying, 70 µL of Microscint-O scintillant (PerkinElmer) was added and counts per minute (CPM) were measured using a MicroBeta microplate counter (PerkinElmer). Titration curves were plotted using Prism (GraphPad Prism 8.0.0.) and IC50 values were calculated.

[2] = biological target: ASH1L SET domain (2069–2288) (Homo sapiens, UniProt Q9NR48); assay: Isothermal titration calorimetry (ITC); conditions: for kcal/mole of injectant: ITC isotherm
Experimental: All samples were extensively degassed by vacuum aspiration for 20 min prior to measurements. […] All titration data were analyzed with a single-site fitting model using Origin 7.0.

[3] = system: MLL leukemia cells (MV4;11, MOLM13, KOPN8, RS4;11); assay: MTT cell viability assay, MLL leukemia cells as a group; format: cell-based, human; conditions: Homo sapiens, MLL leukemia cells
Experimental: Human leukemia cells K562, MV4;11 and RS4;11 (purchased from ATCC) and KOPN8, MOLM13 (purchased from DSMZ) were cultured in RPMI 1640 (Invitrogen) supplemented with 10% heat inactivated (h.i.) FBS and 1% penicillin/streptomycin (Invitrogen). SET2 cells (purchased from DSMZ) were cultured in RPMI 1640 supplemented with 20% h.i. FBS and 1% penicillin/streptomycin. Cells were plated at 1 × 10^5 to 2 × 10^5 cells/mL depending on cell line and treated with 0.25% DMSO or varying concentrations of compounds and incubated at 37 °C, 5% CO2 incubator for 7 days. Media was changed on day 3 or 4 and compounds were resupplied. […] Cell suspensions (100 μL) were transferred to the 96-well plates for each sample in quadruplicate at the time of media change. At day 7, 10 µL of MTT reagent (M6494, Molecular Probes™) was added to each well of the 96 well plate and incubated at 37 °C for 4 h. The formazan was then solubilized by adding 100 µL acidified 10% SDS solution and incubated at 37 °C overnight. Plates were read for absorbance at 570 nm using a PHERAstar BMG microplate reader. The experiments were performed two times in quadruplicates with calculation of mean and SD for each condition. Data were analyzed in Prism 8.0.0 to obtain GI50 values.
Supplementary Figure 4. Cell viability assay for AS-6 in MLL leukemia cell lines. Titration curves from the MTT cell viability assay performed after 7 days of treatment of human MLL1- […]
replicates. Representative graphs are shown from two independent MTT experiments performed […]
(§1) Supplementary Figure 7. […] (a)
Titration curves from the MTT cell viability assay performed after 4, 7, and 11 (or 10) days of […]
Titration curves from the MTT cell viability assay performed after 7 days of treatment of KOPN8 , MOLM13 and MV4;11 cell lines harboring MLL1 translocation (MLL1-r) or K562 cell line (non- […]
Representative graphs are shown from two independent MTT experiments performed for each cell line. GI50 values correspond to […]

MOLM13 cells = assay: MTT cell viability assay; format: cell-based, human; conditions: MTT, 7 days
Experimental: (§2) FBS and 1% penicillin/streptomycin. […] Media was changed on day 3 or 4 and compounds were resupplied. […] Cell suspensions (100 μL) were transferred to the 96-well plates for each sample in quadruplicate at the time of media change. At day 7, 10 µL of MTT reagent (M6494, Molecular Probes™) was added to each well of the 96 well plate and incubated at 37 °C for 4 h. The formazan was then solubilized by adding 100 µL acidified 10% SDS solution and incubated at 37 °C overnight. Plates were read for absorbance at 570 nm using a PHERAstar BMG microplate reader. The experiments were performed two times in quadruplicates with calculation of mean and SD for each condition. Data were analyzed in Prism 8.0.0 to obtain GI50 values.
as §1
(§3) Titration curves from the MTT cell viability assay performed after 4, 7, and 11 (or 10) days of
(§4) Titration curves from the MTT cell viability assay performed after 7 days of treatment of KOPN8 ,
(§5) MOLM13 and MV4;11 cell lines harboring MLL1 translocation (MLL1-r) or K562 cell line (non-
(§6) Representative graphs are shown
(§7) from two independent MTT experiments performed for each cell line.

MV4;11 cells = assay: MTT cell viability assay; format: cell-based, human; conditions: MTT, 7 days
Experimental: as §2, §1, §3, §4, §5, §6, §7

[4] = Log[compound] (M) -5.30642 (4: -5.30643)

With `NC(=S)c1cccc(-c2cn(CCO)c3ccccc23)c1` [compound 3] the IC50 [1] was 15 µM, the “% activity” value ([1]; Log[compound] (M) -3.69897) was 9.186% and 9.699% and the “% activity” value ([1]; Log[compound] (M) -4.17609) was 18.9348% and 13.291%. For the same compound, the “% activity” value ([1]; Log[compound] (M) -4.65321) was 40.9235% and 30.2223%, the “% activity” value ([1]; Log[compound] (M) -5.13033) was 68.7027% and 45.0281% and the “% activity” value ([1]; Log[compound] (M) -5.60746) was 106.01% and 80.1368%. The “% activity” value ([1]; Log[compound] (M) -6.08458) was 97.0728% and 88.0528% and the “% activity” value ([1]; Log[compound] (M) -6.5617) was 107.183% and 116.125%.
For `NCc1ccc2c(-c3cccc(C(N)=S)c3)cn(CCO)c2c1` [AS-5], the “improvement of the activity versus the original fragment hit” value [1] was “over 200 fold”, the IC50 [1] was 4 µM and the “% activity” value ([1]; Log[compound] (M) -3.69897) was 2.662% and 1.923%. For the same compound, the “% activity” value ([1]; Log[compound] (M) -4.17609) was 6.814% and 8.134%, the “% activity” value ([1]; Log[compound] (M) -4.65321) was 17.9312% and 20.7044% and the “% activity” value ([1]; Log[compound] (M) -5.13033) was 34.0137% and 31.5644%. The “% activity” value ([1]; Log[compound] (M) -5.60746) was 45.8867% and 60.6988%, the “% activity” value ([1]; Log[compound] (M) -6.08458) was 80.7749% and 70.6538% and the “% activity” value ([1]; Log[compound] (M) -6.5617) was 92.8804% and 81.5471%. The “% activity” value ([1]; Log[compound] (M) -7.03882) was 105.285% and 87.6496%, the Kd [2] was 6.2 µM and the “N (stoichiometry of binding)” value ([2]; ITC) was 1.1. It also gave a kcal/mole of injectant ([2]; ASH1L-AS-5 molar ratio 0.12083) of -11648.3 kcal/mol, a kcal/mole of injectant ([2]; ASH1L-AS-5 molar ratio 0.18186) of -13231.7 kcal/mol and a kcal/mole of injectant ([2]; ASH1L-AS-5 molar ratio 0.2433) of -11678.6 kcal/mol. It also gave a kcal/mole of injectant ([2]; ASH1L-AS-5 molar ratio 0.30515) of -11475.1 kcal/mol, a kcal/mole of injectant ([2]; ASH1L-AS-5 molar ratio 0.36741) of -11317.2 kcal/mol and a kcal/mole of injectant ([2]; ASH1L-AS-5 molar ratio 0.43008) of -10998.9 kcal/mol. It also gave a kcal/mole of injectant ([2]; ASH1L-AS-5 molar ratio 0.49316) of -10679.7 kcal/mol, a kcal/mole of injectant ([2]; ASH1L-AS-5 molar ratio 0.55666) of -10389.6 kcal/mol and a kcal/mole of injectant ([2]; ASH1L-AS-5 molar ratio 0.62056) of -10042.7 kcal/mol. It also gave a kcal/mole of injectant ([2]; ASH1L-AS-5 molar ratio 0.68487) of -9579.7 kcal/mol, a kcal/mole of injectant ([2]; ASH1L-AS-5 molar ratio 0.7496) of -9123.74 kcal/mol and a kcal/mole of injectant ([2]; ASH1L-AS-5 molar ratio 0.81473) of -8548.86 kcal/mol. For the same compound, the kcal/mole of injectant ([2]; ASH1L-AS-5 molar ratio 0.88027) was -7938.47 kcal/mol, the kcal/mole of injectant ([2]; ASH1L-AS-5 molar ratio 0.94623) was -7340.59 kcal/mol and the kcal/mole of injectant ([2]; ASH1L-AS-5 molar ratio 1.0126) was -6928.78 kcal/mol. The kcal/mole of injectant ([2]; ASH1L-AS-5 molar ratio 1.07937) was -5852.59 kcal/mol, the kcal/mole of injectant ([2]; ASH1L-AS-5 molar ratio 1.14656) was -5058.91 kcal/mol and the kcal/mole of injectant ([2]; ASH1L-AS-5 molar ratio 1.21416) was -4429.92 kcal/mol. It also gave a kcal/mole of injectant ([2]; ASH1L-AS-5 molar ratio 1.28216) of -3902.54 kcal/mol, a kcal/mole of injectant ([2]; ASH1L-AS-5 molar ratio 1.35058) of -3390.49 kcal/mol and a kcal/mole of injectant ([2]; ASH1L-AS-5 molar ratio 1.41941) of -2944.08 kcal/mol. For the same compound, the kcal/mole of injectant ([2]; ASH1L-AS-5 molar ratio 1.48865) was -2536.04 kcal/mol, the kcal/mole of injectant ([2]; ASH1L-AS-5 molar ratio 1.5583) was -2250.86 kcal/mol and the kcal/mole of injectant ([2]; ASH1L-AS-5 molar ratio 1.62836) was -1941.24 kcal/mol. The kcal/mole of injectant ([2]; ASH1L-AS-5 molar ratio 1.69883) was -1790.53 kcal/mol, the kcal/mole of injectant ([2]; ASH1L-AS-5 molar ratio 1.76971) was -1545.36 kcal/mol and the kcal/mole of injectant ([2]; ASH1L-AS-5 molar ratio 1.841) was -1413.63 kcal/mol. For the same compound, the kcal/mole of injectant ([2]; ASH1L-AS-5 molar ratio 1.9127) was -1226.06 kcal/mol.
In the case of `CS(=O)(=O)N1CCC(n2cc(-c3cccc(C(N)=S)c3)c3ccc(CNC(=O)Cc4c[nH]cn4)cc32)CC1` [AS-6], the GI50 [3] is reported as about 50 µM, the “% activity MOLM13” value (MOLM13 cells; log[compound] -4.30103) is reported as 44.6695% and 48.1072% and 45.3243% and the “% activity MOLM13” value (MOLM13 cells; log[compound] -4.60206) is reported as 58.0929% and 58.2566% and 58.584% and 59.3207%. The “% activity MOLM13” value (MOLM13 cells; log[compound] -4.90309) was 66.769% and 64.8864% and 66.8508%, the “% activity MOLM13” value (MOLM13 cells; log[compound] -5.20412) was 75.8543% and 77.8187% and 79.7831% and 79.8649% and the “% activity MOLM13” value (MOLM13 cells; log[compound] -5.50515) was 91.8969% and 80.7653% and 85.3489% and 88.2955%. The “% activity MOLM13” value (MOLM13 cells; log[compound] -5.80618) was 93.7794% and 90.9965% and 88.7047% and 81.3382%, the “% activity MOLM13” value (MOLM13 cells; log[compound] -6.10721) was 102.456% and 101.555% and 98.1993% and 97.7901% and the “% activity MV4;11” value (MV4;11 cells; log[compound] -4.30103) was 54.5576% and 57.6227% and 55.8763% and 56.7674%. For the same compound, the “% activity MV4;11” value (MV4;11 cells; log[compound] -4.60206) was 56.8386% and 61.0443% and 58.6207% and 61.2225%, the “% activity MV4;11” value (MV4;11 cells; log[compound] -4.90309) was 61.2938% and 67.4597% and 60.9374% and the “% activity MV4;11” value (MV4;11 cells; log[compound] -5.20412) was 76.1205% and 82.5002% and 82.4289% and 79.6846%. For the same compound, the “% activity MV4;11” value (MV4;11 cells; log[compound] -5.50515) was 94.9746% and 100.606% and 92.9787% and 93.7272%, the “% activity MV4;11” value (MV4;11 cells; log[compound] -5.80618) was 95.5805% and 97.9685% and 95.0102% and 103.208% and the “% activity MV4;11” value (MV4;11 cells; log[compound] -6.10721) was 95.9013% and 98.3962% and 101.354% and 104.348%.
In the case of `NC(=S)c1cccc(-c2c[nH]c3ccccc23)c1` [compound 2], the IC50 [1] is reported as 50 µM and 50.5 µM, the “% activity” value ([1]; Log[compound] (M) -2.92082) is reported as -0.3683% and -0.3506% and the “% activity” value ([1]; Log[compound] (M) -3.39794) is reported as 16.0357% and 15.8766%. For the same compound, the “% activity” value ([1]; Log[compound] (M) -3.87506) was 38.4321% and 41.7641%, the “% activity” value ([1]; Log[compound] (M) -4.35218) was 49.8512% and 57.5848% and the “% activity” value ([1]; Log[compound] (M) -4.8293) was 59.6441% and 71.2665%. For the same compound, the “% activity” value [1, 4] was 79.3978% and 82.615%, the “% activity” value ([1]; Log[compound] (M) -5.78355) was 85.6112% and 97.322% and the “% activity” value ([1]; Log[compound] (M) -6.26067) was 88.298% and 98.5328%.
In the case of `NCc1ccc2c(-c3cccc(C(N)=S)c3)c[nH]c2c1` [compound 4], the IC50 [1] is reported as 23 µM and 23.5 µM, the “% activity” value ([1]; Log[compound] (M) -3.39794) is reported as 6.033% and 2.5275% and the “% activity” value ([1]; Log[compound] (M) -3.87506) is reported as 27.0096% and 20.8578%. For the same compound, the “% activity” value ([1]; Log[compound] (M) -4.35218) was 40.1717% and 36.6844%, the “% activity” value ([1]; Log[compound] (M) -4.8293) was 67.3184% and 49.0775% and the “% activity” value [1, 4] was 79.0319% and 80.9812%. For the same compound, the “% activity” value ([1]; Log[compound] (M) -5.78355) was 102.423% and 86.0958%, the “% activity” value ([1]; Log[compound] (M) -6.26067) was 109.022% and 106.93% and the “% activity” value ([1]; Log[compound] (M) -6.73779) was 106.089% and 90.3699%.
